Legend:
Assay in all cases: relative viability (nuclei count vs DMSO), 5 days (fraction); higher = more cells survive
Decitabine + Pemetrexed = compound: Nc1ncn([C@H]2C[C@H](O)[C@@H](CO)O2)c(=O)n1 [Decitabine] + Nc1nc2[nH]cc(CCc3ccc(C(=O)N[C@@H](CCC(=O)O)C(=O)O)cc3)c2c(=O)[nH]1 [Pemetrexed] (partner 0.2 µM)
Summary of the method: (§1)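 Lung cancer cell lines in 1536-well plates got either a single drug or a fixed anchor-drug dose together with five library-drug doses (not always all listed) in √10 steps, by pin tool, on the day after seeding. Nuclei were counted after 5 days, and relative viability is the treated-to-vehicle ratio of nuclei counts. Values are medians of duplicate plates.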

[1] = compound: O=C(C[C@H]1NCCC[C@@H]1O)Cn1cnc2cc(Br)c(Cl)cc2c1=O (racemic) [Halofuginone] + Nc1ncn([C@H]2C[C@H](O)[C@@H](CO)O2)c(=O)n1 [Decitabine] (partner 2 µM)
Summary of the method: as §1

Decitabine + Phenformin = compound: Nc1ncn([C@H]2C[C@H](O)[C@@H](CO)O2)c(=O)n1 [Decitabine] + N=C(N)NC(=N)NCCc1ccccc1 [Phenformin] (partner 250 µM)
Summary of the method: as §1

Decitabine + Trametinib = compound: Nc1ncn([C@H]2C[C@H](O)[C@@H](CO)O2)c(=O)n1 [Decitabine] + CC(=O)Nc1cccc(-n2c(=O)n(C3CC3)c(=O)c3c(Nc4ccc(I)cc4F)n(C)c(=O)c(C)c32)c1 [Trametinib] (partner 0.02 µM)
Summary of the method: as §1

Row | Cell Line | relative viability (Decitabine + Pemetrexed; first compound 0.04 µM) | relative viability (Decitabine + Pemetrexed; first compound 0.1265 µM) | relative viability (Decitabine + Pemetrexed; first compound 0.4 µM) | relative viability (Decitabine + Pemetrexed; first compound 1.265 µM) | relative viability (Decitabine + Pemetrexed; first compound 4 µM) | relative viability ([1]; first compound 0.001 µM) | relative viability ([1]; first compound 0.003162 µM) | relative viability ([1]; first compound 0.01 µM) | relative viability ([1]; first compound 0.03162 µM) | relative viability ([1]; first compound 0.1 µM) | relative viability (Decitabine + Phenformin; first compound 0.04 µM) | relative viability (Decitabine + Phenformin; first compound 0.1265 µM) | relative viability (Decitabine + Phenformin; first compound 0.4 µM) | relative viability (Decitabine + Phenformin; first compound 1.265 µM) | relative viability (Decitabine + Phenformin; first compound 4 µM) | relative viability (Decitabine + Trametinib; first compound 0.04 µM) | relative viability (Decitabine + Trametinib; first compound 0.1265 µM) | relative viability (Decitabine + Trametinib; first compound 0.4 µM) | relative viability (Decitabine + Trametinib; first compound 1.265 µM) | relative viability (Decitabine + Trametinib; first compound 4 µM)
1 | NCI-H2023 | 0.14 | 0.175 | 0.144 | 0.126 | 0.115 | 0.234 | 0.232 | 0.213 | 0.182 | 0.0828 | 0.31 | 0.346 | 0.222 | 0.163 | 0.161 | 0.473 | 0.464 | 0.296 | 0.196 | 0.197
2 | NCI-H1666 | 0.874 | 0.79 | 0.712 | 0.641 | 0.504 | 0.769 | 0.601 | 0.724 | 0.795 | 0.794 | 0.617 | 0.568 | 0.522 | 0.506 | 0.593 | 0.785 | 0.873 | 0.713 | 0.783 | 0.836
3 | NCI-H1975 | 0.247 | 0.205 | 0.182 | 0.209 | 0.188 | 0.4 | 0.408 | 0.436 | 0.385 | 0.285 | 0.281 | 0.27 | 0.214 | 0.229 | 0.197 | 0.284 | 0.272 | 0.219 | 0.233 | 0.219
4 | NCI-H2170 | 0.276 | 0.221 | 0.227 | 0.217 | 0.21 | 0.479 | 0.47 | 0.453 | 0.489 | 0.457 | 0.345 | 0.365 | 0.291 | 0.269 | 0.282 | 0.651 | 0.639 | 0.587 | 0.41 | 0.282
5 | NCI-H1355 | 0.701 | 0.513 | 0.38 | 0.323 | 0.314 | 0.401 | 0.332 | 0.359 | 0.351 | 0.385 | 0.432 | 0.385 | 0.338 | 0.277 | 0.323 | 0.371 | 0.382 | 0.337 | 0.224 | 0.248
6 | NCI-H1648 | 0.637 | 0.582 | 0.506 | 0.483 | 0.435 | 0.518 | 0.525 | 0.512 | 0.559 | 0.506 | – | – | – | – | – | 0.442 | 0.462 | 0.452 | 0.379 | 0.355
7 | A549 | – | – | – | – | – | 0.338 | 0.278 | 0.293 | 0.257 | 0.258 | 0.145 | 0.139 | 0.157 | 0.0732 | 0.0645 | – | – | – | – | –
8 | SK-MES-1 | 0.828 | 0.682 | 0.458 | 0.343 | 0.338 | 0.377 | 0.365 | 0.341 | 0.341 | 0.17 | 0.535 | 0.553 | 0.346 | 0.271 | 0.291 | 0.485 | 0.595 | 0.453 | 0.345 | 0.382
9 | EKVX | 0.281 | 0.369 | 0.255 | 0.205 | 0.194 | 0.317 | 0.313 | 0.281 | 0.354 | 0.276 | 0.223 | 0.22 | 0.227 | 0.177 | 0.202 | 0.254 | 0.25 | 0.259 | 0.221 | 0.23
10 | RERF-LC-KJ | 0.441 | 0.403 | 0.215 | 0.401 | 0.369 | 0.842 | 0.807 | 0.664 | 0.753 | 0.563 | 0.459 | 0.386 | – | 0.402 | 0.333 | 0.808 | 0.885 | 0.558 | 0.594 | 0.636
11 | NCI-H1755 | 0.477 | 0.376 | 0.406 | 0.419 | 0.365 | 0.693 | 0.699 | 0.726 | 0.746 | 0.748 | 0.625 | 0.629 | 0.43 | 0.442 | 0.465 | 0.653 | 0.743 | 0.688 | 0.564 | 0.488
12 | NCI-H661 | 0.779 | 0.657 | 0.572 | 0.481 | 0.404 | 0.595 | 0.618 | 0.564 | 0.555 | 0.479 | 0.289 | 0.282 | 0.267 | 0.281 | 0.277 | 0.502 | 0.577 | 0.508 | 0.392 | 0.404
13 | LOU-NH91 | 0.378 | 0.358 | 0.422 | 0.336 | 0.397 | 0.809 | 0.818 | 0.787 | 0.802 | 0.817 | 0.442 | 0.724 | 0.732 | 0.588 | 0.659 | 0.661 | 0.831 | 0.78 | 0.707 | 0.757
14 | LXF-289 | 0.69 | 0.541 | 0.423 | 0.315 | 0.297 | 0.395 | 0.393 | 0.383 | 0.418 | 0.381 | 0.431 | 0.371 | 0.263 | 0.26 | 0.228 | 0.647 | 0.519 | 0.38 | 0.312 | 0.314
15 | HCC-44 | 0.638 | 0.632 | 0.547 | 0.595 | 0.548 | 0.967 | 0.992 | 0.953 | 0.973 | 0.902 | 0.136 | 0.196 | 0.0892 | 0.136 | 0.13 | 1.04 | 0.991 | 0.833 | 0.819 | 0.75
16 | HARA | 0.2 | 0.247 | 0.209 | 0.202 | 0.211 | 0.664 | 0.648 | 0.611 | 0.591 | 0.434 | 0.307 | 0.36 | 0.236 | 0.148 | 0.125 | 0.285 | 0.454 | 0.491 | 0.228 | 0.304
17 | 201T | 0.297 | 0.286 | 0.227 | – | 0.254 | 0.844 | 0.896 | 0.857 | 0.792 | 0.845 | 0.42 | 0.454 | 0.518 | – | 0.409 | 0.739 | 0.721 | 0.773 | – | 0.708

Reference: the supplement of paper PMC10307832
